Source: patent publication US20200022370A1, “MICROBIOCIDAL OXADIAZOLE DERIVATIVES” (SYNGENTA PARTICIPATIONS AG, priority 2016, published 2020)

Columns and labels:
[1] = test system: Puccinia recondita f. Sp. Tritici; assay: Puccinia recondita f. sp. tritici / wheat / leaf disc curative (brown rust); format: in vivo; conditions: foliar, 200 ppm in the applied formulation, wheat leaf segments cv. Kanzler, compound applied 1 day after inoculation, vs untreated, 6 to 8 days after application, read-out: disease control
Procedure: (§1) Leaf disks or leaf segments of various plant species are cut from plants grown in a greenhouse. The cut leaf disks or segments are placed in multiwell plates (24-well format) onto water agar. The leaf disks are sprayed with a test solution before (preventative) or after (curative) inoculation. Compounds to be tested are prepared as DMSO solutions (max. 10 mg/ml) which are diluted to the appropriate concentration with 0.025% Tween20 just before spraying. The inoculated leaf disks or segments are incubated under defined conditions (temperature, relative humidity, light, etc.) according to the respective test system. A single evaluation of disease level is carried out 3 to 14 days after inoculation, depending on the pathosystem. Percent disease control relative to the untreated check leaf disks or segments is then calculated.
Example 2: Fungicidal Activity Against Puccinia recondita f. sp. tritici/Wheat/Leaf Disc Curative (Brown Rust)
Wheat leaf segments cv. Kanzler are placed on agar in multiwell plates (24-well format). The leaf segments are then inoculated with a spore suspension of the fungus. Plates were stored in darkness at 19° C. and 75% relative humidity. The Formulated test compound diluted in water was applied 1 day after inoculation. The leaf segments were incubated at 19° C. and 75% relative humidity under a light regime of 12 hours light/12 hours darkness in a climate cabinet and the activity of a compound was assessed as percent disease control compared to untreated when an appropriate level of disease damage appears in untreated check leaf segments (6 to 8 days after application).
(§2) The following compounds at 200 ppm in the applied Formulation give at least 80% disease control in this test when compared to untreated control leaf disks under the same conditions, which show extensive disease development.

[2] = test system: Puccinia recondita f. Sp. Tritici; assay: Puccinia recondita f. sp. tritici / wheat / leaf disc preventative (brown rust); format: in vivo; conditions: foliar, 200 ppm in the applied formulation, wheat leaf segments cv. Kanzler, inoculated 1 day after application, vs untreated, 7 to 9 days after application, read-out: disease control
Procedure: as §1
Example 1: Fungicidal Activity Against Puccinia recondita f. Sp. Tritici/Wheat/Leaf Disc Preventative (Brown Rust)
Wheat leaf segments cv. Kanzler were placed on agar in multiwell plates (24-well format) and sprayed with the Formulated test compound diluted in water. The leaf disks were inoculated with a spore suspension of the fungus 1 day after application. The inoculated leaf segments were incubated at 19° C. and 75% relative humidity (rh) under a light regime of 12 hours light/12 hours darkness in a climate cabinet and the activity of a compound was assessed as percent disease control compared to untreated when an appropriate level of disease damage appears in untreated check leaf segments (7 to 9 days after application).
as §2

[3] = test system: Glomerella lacenarium (Colletotrichum lacenarium); assay: Glomerella lacenarium (Colletotrichum lacenarium) liquid culture / cucumber / preventative (anthracnose); format: cell-based; conditions: 20 ppm, liquid culture in PDB, 24° C., inhibition of growth measured photometrically 3 to 4 days after application, vs untreated, read-out: disease control
Procedure: Mycelia fragments or conidia suspensions of a fungus prepared either freshly from liquid cultures of the fungus or from cryogenic storage, are directly mixed into nutrient broth. DMSO solutions of the test compound (max. 10 mg/ml) are diluted with 0.025% Tween20 by a factor of 50 and 10 μl of this solution is pipetted into a microtiter plate (96-well format). The nutrient broth containing the fungal spores/mycelia fragments is then added to give an end concentration of the tested compound. The test plates are incubated in the dark at 24° C. and 96% relative humidity. The inhibition of fungal growth is determined photometrically after 2 to 7 days, depending on the pathosystem, and percent antifungal activity relative to the untreated check is calculated.
Example 4: Fungicidal Activity Against Glomerella lacenarium (Colletotrichum lacenarium) Liquid Culture/Cucumber/Preventative (Anthracnose)
Conidia of the fungus from cryogenic storage are directly mixed into nutrient broth (PDB-potato dextrose broth). After placing a (DMSO) solution of test compound into a microtiter plate (96-well format), the nutrient broth containing the fungal spores is added. The test plates are incubated at 24° C. and the inhibition of growth is measured photometrically 3 to 4 days after application.
The following compounds at 20 ppm in the applied Formulation give at least 80% disease control in this test when compared to untreated control under the same conditions, which show extensive disease development.

Phakopsora pachyrhizi = Phakopsora pachyrhizi / soybean / leaf disc preventative (Asian soybean rust); format: in vivo; conditions: foliar, 200 ppm in the applied formulation, soybean leaf disks, inoculated one day after application, vs untreated, 12 to 14 days after application, read-out: disease control
Procedure: as §1
Example 3: Fungicidal Activity Against Phakopsora pachyrhizi/Soybean/Leaf Disc Preventative (Asian Soybean Rust)
Soybean leaf disks are placed on water agar in multiwell plates (24-well format) and sprayed with the Formulated test compound diluted in water. One day after application leaf discs are inoculated by spraying a spore suspension on the lower leaf surface. After an incubation period in a climate cabinet of 24-36 hours in darkness at 20° C. and 75% rh leaf disc are kept at 20° C. with 12 h light/day and 75% rh. The activity of a compound is assessed as percent disease control compared to untreated when an appropriate level of disease damage appears in untreated check leaf disks (12 to 14 days after application).
as §2

CC(=O)N(C)c1ccc(-c2noc(C(F)(F)F)n2)cc1 [Compound 2.18, N-methyl-N-[4-[5-(trifluoromethyl)-1,2,4-oxadiazol-3-yl]phenyl] acetamide]
≥ 80%: pest or weed control at 200 ppm [1] | pest or weed control at 200 ppm [2] | inhibition of growth at 20 ppm [3]

O=C(Nc1ccc(-c2noc(C(F)(F)F)n2)cc1)C1CCCCO1 (stereo not drawn) [Compound 1.72, N-[4-[5-(trifluoromethyl)-1,2,4-oxadiazol-3-yl]phenyl] tetrahydropyran-2-carboxamide]
≥ 80%: pest or weed control at 200 ppm (Phakopsora pachyrhizi) | pest or weed control at 200 ppm [2] | inhibition of growth at 20 ppm [3]

O=C(Nc1ccc(-c2noc(C(F)(F)F)n2)cc1)C1CCOC1 (stereo not drawn) [Compound 1.116, N-[4-[5-(trifluoromethyl)-1,2,4-oxadiazol-3-yl]phenyl] tetrahydrofuran-3-carboxamide]
≥ 80%: pest or weed control at 200 ppm [1] | pest or weed control at 200 ppm [2] | inhibition of growth at 20 ppm [3]

O=C(CCc1ccncc1)Nc1ccc(-c2noc(C(F)(F)F)n2)cc1 [Compound 1.107, 3-(4-pyridyl)-N-[4-[5-(trifluoromethyl)-1,2,4-oxadiazol-3-yl]phenyl] propanamide]
≥ 80%: pest or weed control at 200 ppm [1] | pest or weed control at 200 ppm [2] | inhibition of growth at 20 ppm [3]

CCCCC(=O)Nc1ccc(-c2noc(C(F)(F)F)n2)cc1 [Compound 1.92, N-[4-[5-(trifluoromethyl)-1,2,4-oxadiazol-3-yl]phenyl]pentanamide]
≥ 80%: pest or weed control at 200 ppm (Phakopsora pachyrhizi) | pest or weed control at 200 ppm [2] | inhibition of growth at 20 ppm [3]

CC(C)CC(=O)Nc1ccc(-c2noc(C(F)(F)F)n2)cc1 [Compound 1.85, 3-methyl-N-[4-[5-(trifluoromethyl)-1,2,4-oxadiazol-3-yl]phenyl]butanamide]
≥ 80%: pest or weed control at 200 ppm (Phakopsora pachyrhizi) | pest or weed control at 200 ppm [2] | inhibition of growth at 20 ppm [3]

O=C(Nc1ccc(-c2noc(C(F)(F)F)n2)cc1)C1CC1 [Compound 2.15, N-[4-[5-(trifluoromethyl)-1,2,4-oxadiazol-3-yl]phenyl] cyclopropane-carboxamide]
≥ 80%: pest or weed control at 200 ppm [1] | pest or weed control at 200 ppm [2] | inhibition of growth at 20 ppm [3]

CC(C)OCC(=O)Nc1ccc(-c2noc(C(F)(F)F)n2)cc1 [Compound 1.101, 2-isopropoxy-N-[4-[5-(trifluoromethyl)-1,2,4-oxadiazol-3-yl]phenyl]acetamide]
≥ 80%: pest or weed control at 200 ppm [1] | pest or weed control at 200 ppm [2] | inhibition of growth at 20 ppm [3]

Cc1ccnn1CC(=O)Nc1ccc(-c2noc(C(F)(F)F)n2)cc1 [Compound 1.87, 2-(5-methylpyrazol-1-yl)-N-[4-[5-(trifluoromethyl)-1,2,4-oxadiazol-3-yl]phenyl]acetamide]
≥ 80%: pest or weed control at 200 ppm [1] | pest or weed control at 200 ppm [2] | inhibition of growth at 20 ppm [3]

O=C(CC1CC1(F)F)Nc1ccc(-c2noc(C(F)(F)F)n2)cc1 (stereo not drawn) [Compound 1.124, 2-(2,2-difluorocyclopropyl)-N-[4-[5-(trifluoromethyl)-1,2,4-oxadiazol-3-yl]phenyl]acetamide]
≥ 80%: pest or weed control at 200 ppm (Phakopsora pachyrhizi) | pest or weed control at 200 ppm [2] | inhibition of growth at 20 ppm [3]

CSCC(C)C(=O)Nc1ccc(-c2noc(C(F)(F)F)n2)cc1 (stereo not drawn) [Compound 1.77, 2-methyl-3-methylsulfanyl-N-[4-[5-(trifluoromethyl)-1,2,4-oxadiazol-3-yl]phenyl] propanamide]
≥ 80%: pest or weed control at 200 ppm [1] | pest or weed control at 200 ppm [2] | inhibition of growth at 20 ppm [3]

COc1ncnc(OC)c1CC(=O)Nc1ccc(-c2noc(C(F)(F)F)n2)cc1 [Compound 1.36, 2-(4,6-dimethoxypyrimidin-5-yl)-N-[4-[5-(trifluoromethyl)-1,2,4-oxadiazol-3-yl]phenyl]acetamide]
≥ 80%: pest or weed control at 200 ppm (Phakopsora pachyrhizi) | pest or weed control at 200 ppm [2] | inhibition of growth at 20 ppm [3]

CC1(C(=O)Nc2ccc(-c3noc(C(F)(F)F)n3)cc2)CC1 [Compound 2.11, 1-methyl-N-[4-[5-(trifluoromethyl)-1,2,4-oxadiazol-3-yl]phenyl] cyclopropane-carboxamide]
≥ 80%: pest or weed control at 200 ppm (Phakopsora pachyrhizi) | pest or weed control at 200 ppm [2] | inhibition of growth at 20 ppm [3]

O=C(Cn1cccn1)Nc1ccc(-c2noc(C(F)(F)F)n2)cc1 [Compound 1.104, 2-pyrazol-1-yl-N-[4-[5-(trifluoromethyl)-1,2,4-oxadiazol-3-yl]phenyl]acetamide]
≥ 80%: pest or weed control at 200 ppm [1] | pest or weed control at 200 ppm [2] | inhibition of growth at 20 ppm [3]

CON(C)C(=O)N(C)c1ccc(-c2noc(C(F)(F)F)n2)cc1 [Compound 1.126, 1-methoxy-1,3-dimethyl-3-[4-[5-(trifluoromethyl)-1,2,4-oxadiazol-3-yl]phenyl]urea]
≥ 80%: pest or weed control at 200 ppm [1] | pest or weed control at 200 ppm [2] | inhibition of growth at 20 ppm [3]

O=C(Cc1ccc2c(c1)OCO2)Nc1ccc(-c2noc(C(F)(F)F)n2)cc1 [Compound 1.12, 2-(1,3-benzodioxol-5-yl)-N-[4-[5-(trifluoromethyl)-1,2,4-oxadiazol-3-yl]phenyl]acetamide]
≥ 80%: pest or weed control at 200 ppm (Phakopsora pachyrhizi) | pest or weed control at 200 ppm [2] | inhibition of growth at 20 ppm [3]

CCCC(C)C(=O)Nc1ccc(-c2noc(C(F)(F)F)n2)cc1 (stereo not drawn) [Compound 1.86, 2-methyl-N-[4-[5-(trifluoromethyl)-1,2,4-oxadiazol-3-yl]phenyl] pentanamide]
≥ 80%: pest or weed control at 200 ppm (Phakopsora pachyrhizi) | pest or weed control at 200 ppm [2] | inhibition of growth at 20 ppm [3]

O=C(Nc1ccc(-c2noc(C(F)(F)F)n2)nc1)c1ccc(-n2ccnc2)cc1 [Compound 1.54, 4-imidazol-1-yl-N-[6-[5-(trifluoromethyl)-1,2,4-oxadiazol-3-yl]-3-pyridyl]benzamide]
≥ 80%: pest or weed control at 200 ppm (Phakopsora pachyrhizi) | pest or weed control at 200 ppm [2] | inhibition of growth at 20 ppm [3]

O=C(Nc1ccc(-c2noc(C(F)(F)F)n2)cc1)C1CC1(F)F (stereo not drawn) [Compound 1.118, 2,2-difluoro-N-[4-[5-(trifluoromethyl)-1,2,4-oxadiazol-3-yl]phenyl]cyclo-propanecarboxamide]
≥ 80%: pest or weed control at 200 ppm (Phakopsora pachyrhizi) | pest or weed control at 200 ppm [2] | inhibition of growth at 20 ppm [3]

CC1CC1C(=O)Nc1ccc(-c2noc(C(F)(F)F)n2)cc1 (stereo not drawn) [Compound 1.90, 2-methyl-N-[4-[5-(trifluoromethyl)-1,2,4-oxadiazol-3-yl]phenyl]cyclo-propanecarboxamide]
≥ 80%: pest or weed control at 200 ppm (Phakopsora pachyrhizi) | pest or weed control at 200 ppm [2] | inhibition of growth at 20 ppm [3]

COc1ccc(CC(=O)Nc2ccc(-c3noc(C(F)(F)F)n3)cc2)cc1 [Compound 1.71, 2-(4-methoxyphenyl)-N-[4-[5-(trifluoromethyl)-1,2,4-oxadiazol-3-yl]phenyl]acetamide]
≥ 80%: pest or weed control at 200 ppm (Phakopsora pachyrhizi) | pest or weed control at 200 ppm [2] | inhibition of growth at 20 ppm [3]
